According to US20250136722A1, “CYTOTOXICITY TARGETING CHIMERAS” (GLAXOSMITHKLINE INTELLECTUAL PROPERTY DEVELOPMENT LIMITED, priority 2021, published 2025):
Several values for one entry are separate records, joined by “and”; a condition that tells them apart may be missing. Identical values can stand only once.

Key:
[1] = target: T1, CHOK1 cells engineered to overexpress human CCR2 (Homo sapiens, UniProt P41597); experiment: Antibody dependent cellular cytotoxicity (ADCC) reporter assay (Example 199); type: cell-based; conditions: with anti-cotinine antibody SEQ ID NO: 11/12; CHOK1-human CCR2 target cells, Jurkat FcγRIIIa NFAT-luciferase reporter cells; 12-18 hours; read-out: ADCC Reporter Assay pEC50 (converted)
T1 construct: expressed in transfected cells; host or cells: CHOK1 cells
In short: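 Potency is reported as pEC50 from a nonlinear fit, averaged over runs, using luciferase signal divided by that of compound-free wells. The readout comes from NFAT-luciferase Jurkat cells expressing FcγRIIIa, mixed for 12–18 h with human CCR2-overexpressing CHOK1 cells, 1 pM–10 μM ARM compound and 0.01–200 μg/mL Fc-enhanced anti-cotinine IgG1.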

[2] = target: Anti-cotinine antibody (SEQ ID NO: 11 / SEQ ID NO: 12, rabbit variable region with human IgG1 Fc domain); experiment: Binding of anti-cotinine antibody to ARM compounds by SPR, Biacore T200, 37° C. (Example 202); conditions: pH 7.4, rabbit variable region/human IgG1 Fc antibody captured on protein A
Method: Anti-cotinine antibodies having a heavy chain sequence of SEQ ID NO: 11 and a light chain sequence of SEQ ID NO: 12 (rabbit variable region with human IgG1 Fc domain containing a DE mutation (S239D/1332E)) were captured on one or more flow cells of a protein A sensor chip (Cytiva) using a Biacore T200 while reserving flow cell 1 as a reference. Following capture, a 3000 second wait step was included to reduce drift during compound analysis. ARM compounds of Formula (I) were then injected at 100 μL/min with 200 and 2000 second association and dissociation times. The entire experiment was run at 37° C. with running buffer containing 10 mM HEPES pH 7.4, 150 mM NaCl, 0.005% P20 and 1% DMSO. ARM compounds of Formula (I) were titrated with a top concentration of 200 nM using a 3-fold 5-point dilution series and a corresponding 5-injection buffer cycle was run for blank subtraction. Data were double referenced by subtracting the response of the reference flow cell from that of the antibody-containing flow cell and subsequently subtracting the referenced blank sensorgrams. Following compound analysis, the surface was regenerated using a 30 second injection of pH 1.5 glycine at a flow rate of 30 μL/min after which antibody was re-captured. The experiment was run using Biacore T200 control software and evaluated using Biacore T200 Evaluation software. Curves were fit with a 1:1 kinetic binding model to obtain kon(1/Ms), koff(1/s), Kd (M) determined as koff/kon, and residence time determined as 1/koff. (s).
Anti-cotinine antibody was tested for binding to ARMs compounds of Formula (I) of the invention in the above assay in or more experimental runs and the results are shown in Table 5 below. Affinity is reported as a pKd value. The pKd value is the negative log of the Kd value, wherein the Kd value is the dissociation constant measured in molar (M) as noted above. For compounds tested in more than one experimental run, the pKd value is reported as an average.

[3] = target: human alpha1 nicotinic acetylcholine (nACh) receptor (Homo sapiens, UniProt P02708+Q07001); experiment: Nicotinic acetylcholine receptor antagonism assay, IONFlux automated patch clamp (Example 203); type: cell-based; conditions: for Emax at 10 µM: maximum percentage antagonism at maximum concentration tested 10 μM; for Emax at 10 µM / Emax at 100 µM: read-out: Maximum Response (%); for IC50: nAChR antagonism, ACh stimulated, patch clamp; for Emax at 100 µM: maximum percentage antagonism at maximum concentration tested 100 μM
Method: Cells expressing human alpha1 nicotinic acetylcholine (nACh) receptor (nAChR) were washed and dissociated using Trypsin containing buffer. Cells were then washed and seeded at a density of 3-5 million cells/mL and allowed to grow for 3 days. Then, 60-80 μL of cells were added to plates and incubated with dose response of an ARM compound of Formula (I) with a top concentration of either 10 μM or 100 μM. The receptor was then stimulated via addition of acetylcholine (ACh) and activation of the receptor was monitored via the IONFlux automated patch clamp system. IonFlux Data Analyzer software was utilized to perform leak subtraction and measure (min) peak current amplitude.
Data processing: (1) Current values recorded for vehicle only applications in individual traps/patterns were subtracted from corresponding current amplitude values for control, test article and control+test article. (2) Control response was calculated as % of the average response of the 3rd out of total 3 ACh (10 mM) applications alone. In rare situations, if the 3rd ACh response was obscured due to technical artifacts, the 2nd and/or 1 st ACh (10 mM) application was considered as control. The peak current amplitude generated in the presence of each test article concentration was then used to calculate the % inhibition as compared to control response (10 mM ACh alone). These estimates were further corrected for vehicle response and run down corrected by normalizing with time matched control responses (10 mM ACh alone). The corrected percentages were then fit with a non-linear function in GraphPad Prism 6 (or later versions) to determine the […].
Exclusion criteria: (i) any n's with poor recording quality, (ii) control current amplitude <500 pA or (iii) significant outliers, as determined by the Grubbs' test.
ARMs compounds of Formula (I) of the invention were tested for antagonism of the nAChR in the above assay in […] experimental runs and the results are shown in Table 7 below. Antagonistic activity of the compounds of Formula (I) of the invention is reported as an IC50 value (half maximal inhibitory concentration) and the maximum percentage antagonism observed at the highest concentration of compound of Formula (I) tested, as indicated in Table 7. For compounds tested in more than one experimental run, the IC50 value is reported as an average.

Chain of human alpha1 nicotinic acetylcholine (nACh) receptor (P02708 21-457): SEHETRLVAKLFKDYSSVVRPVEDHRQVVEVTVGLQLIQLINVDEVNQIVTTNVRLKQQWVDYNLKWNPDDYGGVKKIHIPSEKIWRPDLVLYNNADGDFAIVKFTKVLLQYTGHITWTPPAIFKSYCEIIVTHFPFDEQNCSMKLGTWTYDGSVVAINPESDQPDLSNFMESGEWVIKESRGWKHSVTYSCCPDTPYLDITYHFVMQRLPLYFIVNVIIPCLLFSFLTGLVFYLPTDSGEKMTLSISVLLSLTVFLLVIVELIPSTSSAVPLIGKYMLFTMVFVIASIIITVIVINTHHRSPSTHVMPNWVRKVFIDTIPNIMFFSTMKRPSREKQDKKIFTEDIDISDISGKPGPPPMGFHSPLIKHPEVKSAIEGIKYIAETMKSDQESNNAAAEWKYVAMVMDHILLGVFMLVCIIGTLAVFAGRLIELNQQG
Chain of human alpha1 nicotinic acetylcholine (nACh) receptor (P11230 24-501 partner): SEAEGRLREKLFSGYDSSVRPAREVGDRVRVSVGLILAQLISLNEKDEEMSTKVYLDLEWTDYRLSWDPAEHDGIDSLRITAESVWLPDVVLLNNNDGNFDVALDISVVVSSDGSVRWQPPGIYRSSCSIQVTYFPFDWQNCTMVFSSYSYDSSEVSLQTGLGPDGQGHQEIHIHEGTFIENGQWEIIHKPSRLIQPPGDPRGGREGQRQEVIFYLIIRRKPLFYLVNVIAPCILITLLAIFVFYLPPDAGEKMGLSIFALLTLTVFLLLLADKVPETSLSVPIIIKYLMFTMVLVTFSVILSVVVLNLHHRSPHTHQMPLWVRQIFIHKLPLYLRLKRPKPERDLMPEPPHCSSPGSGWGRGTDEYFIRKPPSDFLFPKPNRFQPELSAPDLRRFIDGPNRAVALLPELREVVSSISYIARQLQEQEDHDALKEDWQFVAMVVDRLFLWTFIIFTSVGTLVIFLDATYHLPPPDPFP
Chain of human alpha1 nicotinic acetylcholine (nACh) receptor (Q07001 22-517): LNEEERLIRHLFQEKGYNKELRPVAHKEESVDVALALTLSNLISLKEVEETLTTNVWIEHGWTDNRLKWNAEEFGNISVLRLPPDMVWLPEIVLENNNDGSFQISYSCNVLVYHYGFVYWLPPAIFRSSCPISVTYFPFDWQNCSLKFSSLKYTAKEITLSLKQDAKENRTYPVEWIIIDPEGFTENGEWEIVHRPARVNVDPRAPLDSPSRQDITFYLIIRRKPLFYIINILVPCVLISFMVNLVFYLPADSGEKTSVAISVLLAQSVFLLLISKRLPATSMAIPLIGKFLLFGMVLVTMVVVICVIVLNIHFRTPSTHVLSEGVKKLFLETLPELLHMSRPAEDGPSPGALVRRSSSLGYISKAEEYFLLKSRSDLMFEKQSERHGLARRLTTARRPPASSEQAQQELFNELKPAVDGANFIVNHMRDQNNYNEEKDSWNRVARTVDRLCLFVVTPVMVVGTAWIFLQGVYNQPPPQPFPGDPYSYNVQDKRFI

| SMILES | EC50 [1] | pKd of Antibody for ARM Compound of Formula (I) [2] | Emax at 10 µM [3] | IC50 [3] | Emax at 100 µM [3] |
| --- | --- | --- | --- | --- | --- |
| CC(C)N(C)[C@@H]1CC[C@H](N2CC[C@H](Nc3ncnc4ccc(C(F)(F)F)cc34)C2=O)[C@H](NC(=O)[C@H]2CC[C@@H](NC(=O)CCOCCNC(=O)CCCCNC(=O)[C@H]3CC(=O)N(C)[C@@H]3c3cccnc3)CC2)C1 [Example 198, (2S,3S)-N-(5-((2-(3-(((1S,4s)-4-(((1R,2S,5R)-5-(Isopropyl(methyl)amino)-2-((S)-2-oxo-3-((6-(trifluoromethyl)quinazolin-4-yl)amino)pyrrolidin-1-yl)cyclohexyl)carbamoyl)cyclohexyl)amino)-3-oxopropoxy)ethyl)amino)-5-oxopentyl)-1-methyl-5-oxo-2-(pyridin-3-yl)pyrrolidine-3-carboxamide] | 0.398 nM and 0.316 nM | 9.3835 | – | – | – |
| CC(C)N(C)[C@@H]1CC[C@H](N2CC[C@H](Nc3ncnc4ccc(C(F)(F)F)cc34)C2=O)[C@H](NC(=O)[C@H]2CC[C@H](c3ccc(C(=O)NCCOCCOCCNC(=O)[C@H]4CC(=O)N(C)[C@@H]4c4cccnc4)cc3)CC2)C1 [Example 140] | 3.16 nM | – | 18.2% | > 10000 nM | – |
| CC(C)N(C)[C@@H]1CC[C@H](N2CC[C@H](Nc3ncnc4ccc(C(F)(F)F)cc34)C2=O)[C@H](NC(=O)CCOCCOCCO[C@H]2CC[C@H](OCCNC(=O)[C@H]3CC(=O)N(C)[C@@H]3c3cccnc3)CC2)C1 [Example 192, (2S,3S)-N-(2-(((1R,4S)-4-(2-(2-(3-(((1R,2S,5R)-5-(Isopropyl(methyl)amino)-2-((S)-2-oxo-3-((6-(trifluoromethyl)quinazolin-4-yl)amino)pyrrolidin-1-yl)cyclohexyl)amino)-3-oxopropoxy)ethoxy)ethoxy)cyclohexyl)oxy)ethyl)-1-methyl-5-oxo-2-(pyridin-3-yl)pyrrolidine-3-carboxamide] | – | – | – | 74300 nM | 53% |
| CC(C)N(C)[C@@H]1CC[C@H](N2CC[C@H](Nc3ncnc4ccc(C(F)(F)F)cc34)C2=O)[C@H](NC(=O)[C@H]2C[C@@H](NC(=O)CCCO[C@H]3CC[C@H](OCCNC(=O)[C@H]4CC(=O)N(C)[C@@H]4c4cccnc4)CC3)C2)C1 [Example 9] | 25.1 nM | – | – | 82000 nM | 53.9% |
| CC(C)N(C)[C@@H]1CC[C@H](N2CC[C@H](Nc3ncnc4ccc(C(F)(F)F)cc34)C2=O)[C@H](NC(=O)[C@H]2C[C@@H](NC(=O)CCOCCNC(=O)CCOCCNC(=O)[C@H]3CC(=O)N(C)[C@@H]3c3cccnc3)C2)C1 [Example 44, (2S,3S)-N-(2-(3-((2-(3-(((1S,3s)-3-(((1R,2S,5R)-5-(Isopropyl(methyl)amino)-2-((S)-2-oxo-3-((6-(trifluoromethyl)quinazolin-4-yl)amino)pyrrolidin-1-yl)cyclohexyl)carbamoyl)cyclobutyl)amino)-3-oxopropoxy)ethyl)amino)-3-oxopropoxy)ethyl)-1-methyl-5-oxo-2-(pyridin-3-yl)pyrrolidine-3-carboxamide] | 0.897 nM | – | – | ≥ 100000 nM | 51.5% |
| CC(C)N(C)[C@@H]1CC[C@H](N2CC[C@H](Nc3ncnc4ccc(C(F)(F)F)cc34)C2=O)[C@H](NC(=O)c2ccc(C3CCN(CCOCCOCCNC(=O)[C@H]4CC(=O)N(C)[C@@H]4c4cccnc4)CC3)cn2)C1 [Example 94] | 10 nM | – | 67.1% | 4660 nM | – |
| CC(C)N(C)[C@@H]1CC[C@H](N2CC[C@H](Nc3ncnc4ccc(C(F)(F)F)cc34)C2=O)[C@H](NC(=O)c2ccc(N3CCC(C(=O)NCCOCCOCCNC(=O)[C@H]4CC(=O)N(C)[C@@H]4c4cccnc4)CC3)cc2)C1 [Example 130, 1-(4-(((1R,2S,5R)-5-(Isopropyl(methyl)amino)-2-((S)-2-oxo-3-((6-(trifluoromethyl)quinazolin-4-yl)amino)pyrrolidin-1-yl)cyclohexyl)carbamoyl)phenyl)-N-(2-(2-(2-((2S,3S)-1-methyl-5-oxo-2-(pyridin-3-yl)pyrrolidine-3-carboxamido)ethoxy)ethoxy)ethyl)piperidine-4-carboxamide] | 3.98 nM | – | 16.8% | > 10000 nM | – |
| CC(C)N(C)[C@@H]1CC[C@H](N2CC[C@H](Nc3ncnc4ccc(C(F)(F)F)cc34)C2=O)[C@H](NC(=O)[C@H]2C[C@H](NC(=O)CCCO[C@H]3CC[C@H](OCCNC(=O)[C@H]4CC(=O)N(C)[C@@H]4c4cccnc4)CC3)C2)C1 [Example 8] | 0.631 nM | – | – | 47200 nM | 73.1% |
| CC(C)N(C)[C@@H]1CC[C@H](N2CC[C@H](Nc3ncnc4ccc(C(F)(F)F)cc34)C2=O)[C@H](NC(=O)CCOCCN2CCC3(CCC(C(=O)NCCNC(=O)[C@H]4CC(=O)N(C)[C@@H]4c4cccnc4)CC3)CC2)C1 [compound 184] | 0.398 nM | – | 69.2% | 6390 nM | – |
| CC(C)N(C)[C@@H]1CC[C@H](N2CC[C@H](Nc3ncnc4ccc(C(F)(F)F)cc34)C2=O)[C@H](NC(=O)[C@H]2CC[C@H](NC(=O)CCCO[C@H]3CC[C@H](OCCNC(=O)[C@H]4CC(=O)N(C5CC5)[C@@H]4c4cccnc4)CC3)CC2)C1 [Example 13] | – | 10.511 | – | – | – |
| CC(C)N(C)[C@@H]1CC[C@H](N2CC[C@H](Nc3ncnc4ccc(C(F)(F)F)cc34)C2=O)[C@H](NC(=O)[C@H]2CC[C@@H](NC(=O)CCCOC[C@H]3CC[C@@H](COCCNC(=O)[C@H]4CC(=O)N(C)[C@@H]4c4cccnc4)CC3)CC2)C1 [Example 61] | – | 9.558 | – | – | – |
| CC(C)N(C)[C@@H]1CC[C@H](N2CC[C@H](Nc3ncnc4ccc(C(F)(F)F)cc34)C2=O)[C@H](NC(=O)C2CCN(c3ccc(C(=O)NCCOCCOCCNC(=O)[C@H]4CC(=O)N(C)[C@@H]4c4cccnc4)cc3)CC2)C1 [Example 142] | 0.501 nM | – | 13.1% | > 10000 nM | – |
| CC(C)N(C)[C@@H]1CC[C@H](N2CC[C@H](Nc3ncnc4ccc(C(F)(F)F)cc34)C2=O)[C@H](NC(=O)[C@H]2C[C@H](NC(=O)CCOCCOCCOCCNC(=O)[C@H]3CC(=O)N(C)[C@@H]3c3cccnc3)C2)C1 [Example 27] | 7.28 nM | – | – | 93700 nM | 53.8% |
| CC(C)N(C)[C@@H]1CC[C@H](N2CC[C@H](Nc3ncnc4ccc(C(F)(F)F)cc34)C2=O)[C@H](NC(=O)[C@H]2CC[C@@H](NC(=O)CCOCCCNC(=O)CCCNC(=O)[C@H]3CC(=O)N(C)[C@@H]3c3cccnc3)CC2)C1 [Example 17, (2S,3S)-N-(4-((3-(3-(((1S,4s)-4-(((1R,2S,5R)-5-(Isopropyl(methyl)amino)-2-((S)-2-oxo-3-((6-(trifluoromethyl)quinazolin-4-yl)amino)pyrrolidin-1-yl)cyclohexyl)carbamoyl)cyclohexyl)amino)-3-oxopropoxy)propyl)amino)-4-oxobutyl)-1-methyl-5-oxo-2-(pyridin-3-yl)pyrrolidine-3-carboxamide] | 0.338 nM and 0.656 nM | – | – | ≥ 100000 nM | 55.1% |
